Results reported in publication PMC11313193, “Which Constituents Determine the Antioxidant Activity and Cytotoxicity of Garlic? Role of Organosulfur Compounds and Phenolics” (International Journal of Molecular Sciences, 2024).
Converted amounts (≈) assume the structure as drawn. Where two headings read alike, the source gives them in different places.

Tests used:
[1] = test system: KB human epidermoid carcinoma cells; design: method as in PMID 8593472; conditions: cited from earlier work
[2] = test system: PEO1 ovarian cancer cells; assay: Cytotoxicity (Neutral Red), PEO1 cells; assay type: cell-based, human; conditions: for Concentration at which viability of PEO1 cells was lowered: p < 0.05; for IC50: Homo sapiens, read-out: IC50 PEO1
Description: (§1) The PEO1 cells, SKOV-3 cells, and MRC-5 cells were grown at 37 °C and 5% CO2 in RPMI + GlutaMAX medium, McCoy’s 5A medium, and the DMEM + GlutaMAX medium, respectively. The media were supplemented with 10% heat-inactivated fetal calf serum and penicillin/streptomycin. The cell viability was evaluated using the Trypan Blue exclusion test.
(§2) In the cytotoxicity experiments, cells were grown in wells of sterile 96-well plates. The seeding density was 1 × 10^4 for SKOV-3 and MRC-5 cells and 1.5 × 10^4 for PEO1 cells. The cells were allowed to grow in the incubator for 24 h. Then, the medium was removed and new medium with an examined compound was added. The stock solutions of the compounds studied diluted with the appropriate cell medium were filtered before the addition to the cells using 0.22 µm filters. No more than 0.02% of DMSO was present in the media, and it had no discernible impact on the treated cells. Cells not exposed to any compound served as a control. After another 24 h incubation, the medium was gently aspirated, and the wells were added with 2% sterile Neutral Red solution (100 µL). The plates were then incubated (37 °C, 5% CO2) for one hour. The Neutral Red solution was aspirated, and the wells were washed two times with warm (37 °C) PBS. Subsequently, 100 µL of a permeabilization mixture (water/ethanol/glacial acetic acid, 50/49/1, v/v/v) was introduced to each well. The plates were shaken at 700 rpm for 20 min and absorbance was read at a wavelength of 540 nm against 620 nm.

[3] = test system: DUI45 prostate cancer cells; design: method as in PMID 19589639; conditions: 48 h exposure, cited from earlier work
[4] = Ferric reducing antioxidant power (FRAP) assay; conditions: 30 min at ambient temperature, pH 3.6, absorbance at 593 nm
Description: The method proposed by Benzie and Strain [91] was employed with a slight modification. Briefly, increasing volumes of solutions of the studied compounds were added to wells of a 96-well microplate prefilled with 200 μL of the working solution composed of 0.3 M acetate buffer, pH 3.6 (10 volumes), 10 mM 2,4,6-tris(2-pyridyl)-s-triazine (TPTZ), in 40 mM HCl (1 volume) and 20 mM FeCl3 (1 volume), was prepared immediately before use. After 30 min incubation at ambient temperature and the absorbance of the Fe^2+-TPTZ complex was read at 593 nm.
(§3) All assays were standardized with respect to Trolox. The antioxidant activity was calculated in each case as a ratio of the slope of the dependence of absorbance change on the concentration of a studied compound to the slope of the dependence of absorbance change of standard samples concerning Trolox on the concentration of Trolox. Antioxidant activities were expressed in moles of Trolox equivalents (TE)/mol of a studied compound, as described previously.

MRC-5 fibroblasts = assay: Cytotoxicity (Neutral Red), MRC-5 fibroblasts; assay type: cell-based, human; conditions: for IC50: Homo sapiens, read-out: IC50 MRC-5
Description: as §1, §2

[5] = test system: HTB-35 cervical cancer cells; design: method as in PMID 24843386; conditions: range given for HeLa and HTB-35, converted; cited from earlier work
[6] = test system: PC-3 prostate cancer cells; design: method as in PMID 19589639; conditions: 48 h exposure, cited from earlier work
[7] = test system: HeLa cervical cancer cells; design: method as in PMID 24843386; conditions: range given for HeLa and HTB-35, converted; cited from earlier work
[8] = test system: HeLa human epithelial carcinoma cells; design: method as in PMID 8593472; conditions: cited from earlier work
[9] = DPPH^● decolorization assay; conditions: 30 min at ambient temperature in the dark, absorbance at 517 nm
Description: The assay was performed as described in a previous article. Briefly, increasing volumes of solutions of the studied compounds were introduced to wells of a 96-well microplate, each with 200 μL of 0.3 mM DPPH^● solution in methanol. The reaction was allowed to proceed for 30 min at ambient temperature in the dark, and absorbance at 517 nm was read. The absorbance decrease was a measure of the antioxidant activity.
as §3

[10] = test system: LNCaP prostate cancer cells; design: method as in PMID 19589639; conditions: 48 h exposure, cited from earlier work
[11] = ABTS^● decolorization assay; conditions: 30 min incubation at room temperature, absorbance at 734 nm
Description: A modification of the ABTS^● decolorization assay was employed. Briefly, various volumes of solutions of the studied compounds were introduced to wells of a 96-well microplate, each prefilled 200 μL of ABTS^● solution. […] The drop in absorbance after 30 min incubation at room temperature was read as a measure of the antioxidant activity.
as §3

[12] = test system: HL-60RG human promyelocytic leukemia cells; design: method as in PMID 8593472; conditions: cited from earlier work
[13] = test system: PLC/PRF/5 human hepatoma cells; design: method as in PMID 8593472; conditions: cited from earlier work
[14] = test system: P388-D1 mouse lymphoid cancer cells; design: method as in PMID 8593472; conditions: cited from earlier work
[15] = test system: dRLh-84 rat hepatoma cells; design: method as in PMID 8593472; conditions: cited from earlier work
[16] = test system: SKOV-3 ovarian cancer cells; assay: Cytotoxicity (Neutral Red), SKOV-3 cells; assay type: cell-based, human; conditions: for Concentration at which viability of SKOV-3 cells was lowered: p < 0.05; for IC50: Homo sapiens, read-out: IC50 SKOV-3
Description: as §1, §2

[17] = test system: MKN-7 gastric cancer cell line; design: method as in PMID 2298289; conditions: range given for four gastric cancer cell lines; read-out: IC50 MKN-7 gastric cancer cells; cited from earlier work
[18] = test system: NUGC-2 gastric cancer cell line; design: method as in PMID 2298289; conditions: range given for four gastric cancer cell lines; read-out: IC50 NUGC-2 gastric cancer cells; cited from earlier work
MCF-7 cells = test system: MCF-7 cells; design: method as in PMID 24223637; conditions: 40 μg/mL (132 μM); cited from earlier work
[19] = test system: breast cancer HCC1937 cells; design: method as in PMID 16619521; conditions: 100 μM; cited from earlier work
[20] = test system: colorectal cancer CACO-2 cells; design: method as in PMID 25829782; conditions: cited from earlier work
[21] = test system: colorectal cancer SW-620 cells; design: method as in PMID 25829782; conditions: cited from earlier work
[22] = test system: HGC-27 gastric cancer cell line; design: method as in PMID 2298289; conditions: range given for four gastric cancer cell lines; read-out: IC50 HGC-27 gastric cancer cells; cited from earlier work
[23] = test system: MKN-28 gastric cancer cell line; design: method as in PMID 2298289; conditions: range given for four gastric cancer cell lines; read-out: IC50 MKN-28 gastric cancer cells; cited from earlier work
[24] = test system: A549 human adenocarcinomic alveolar basal epithelial cells; design: method as in PMID 14688022; conditions: cited from earlier work

O=C(O)c1cc(O)c(O)c(O)c1 [Gallic acid, gallic acid]
IC50 KB cells [1]: 13.2 µg/mL (≈ 77.6 µM)
IC50 ([1]; converted from μg/mL): 73 µM
Concentration at which viability of PEO1 cells was lowered ([2]; 24 h exposure): 200 to 1000 µM
IC50 ([2]; PEO1, 24 h exposure, Neutral Red): 19 µM
IC50 ([3]; converted): 89 µM
IC50 DUI45 prostate cancer cells [3]: 16 µg/mL (≈ 94.1 µM)
Antioxidant activity, FRAP [4]: 0.332 ± 0.001 mol Trolox equivalents (TE)/mol compound
Concentration at which viability of MRC-5 cells was lowered (MRC-5 fibroblasts; 24 h exposure, p < 0.05): 200 to 1000 µM
IC50 (MRC-5 fibroblasts; MRC5, 24 h exposure, Neutral Red): 243 µM
IC50 [5]: 111 to 139 µM
IC50 ([6]; converted): 89 µM
IC50 PC-3 prostate cancer cells [6]: 16 µg/mL (≈ 94.1 µM)
IC50 [7]: 111 to 139 µM
IC50 HeLa cells [8]: 6.1 µg/mL (≈ 35.9 µM)
IC50 ([8]; converted from μg/mL): 34 µM
Antioxidant activity, DPPH^● Decolorization [9]: 0.178 ± 0.023 mol Trolox equivalents (TE)/mol compound
IC50 ([10]; converted): 117 µM
IC50 LNCaP prostate cancer cells [10]: 21 µg/mL (≈ 123 µM)
Antioxidant activity, ABTS^● Decolorization [11]: 0.972 ± 0.028 mol Trolox equivalents (TE)/mol compound
IC50 HL-60RG cells [12]: 5.4 µg/mL (≈ 31.7 µM)
IC50 ([12]; converted from μg/mL): 30 µM
IC50 PLC/PRF/5 cells [13]: 6.6 µg/mL (≈ 38.8 µM)
IC50 ([13]; converted from μg/mL): 37 µM
IC50 P388-D1 cells [14]: 4.8 µg/mL (≈ 28.2 µM)
IC50 ([14]; converted from μg/mL): 27 µM
IC50 dRLh-84 cells [15]: 6.2 µg/mL (≈ 36.4 µM)
IC50 ([15]; converted from μg/mL): 34 µM
Concentration at which viability of SKOV-3 cells was lowered ([16]; 24 h exposure): 200 to 1000 µM
IC50 ([16]; SK-OV-3, 24 h exposure, Neutral Red): 115 µM

O=c1c(O)c(-c2ccc(O)c(O)c2)oc2cc(O)cc(O)c12 [Quercetin]
IC50 [17]: 32 to 55 µM
Concentration at which viability of PEO1 cells was lowered ([2]; 24 h exposure): 75 to 200 µM
IC50 ([2]; PEO1, 24 h): 100 µM
IC50 [18]: 32 to 55 µM
Viability of MCF-7 cells (diminished to) (MCF-7 cells): ca. 70%
Antioxidant activity, FRAP [4]: 1.350 ± 0.201 mol Trolox equivalents (TE)/mol compound
Concentration range with no significant decrease in viability of MRC-5 cells (MRC-5 fibroblasts; 24 h exposure): up to 200 µM
IC50 (MRC-5 fibroblasts; MRC5, 24 h): 111 µM
Viability of HCC1937 cells (diminished to) [19]: ca. 40%
Antioxidant activity, DPPH^● Decolorization [9]: 0.384 ± 0.040 mol Trolox equivalents (TE)/mol compound
IC50 [20]: 35 µM
Antioxidant activity, ABTS^● Decolorization [11]: 1.138 ± 0.029 mol Trolox equivalents (TE)/mol compound
IC50 [21]: 20 µM
IC50 [22]: 32 to 55 µM
IC50 [23]: 32 to 55 µM
IC50 [24]: ~40 µM
Concentration at which viability of SKOV-3 cells was lowered ([16]; 24 h exposure): 75 to 200 µM
IC50 ([16]; SK-OV-3, 24 h): 272 µM
